Assay results taken from patent publication US20250041461A1, “[177LU] LUTETIUM-PSMA I&T COMPOSITION AND DOSIMETRY, KIT, METHOD OF MAKING, AND METHOD OF USING THEREOF” (Curium US LLC, priority 2023, published 2025).

Experiment: Eclipse sub-study, cycle 3 dosimetry (16 patients)
Format: in vivo, human
Settings: cycle 3, 16 patients
Description: To evaluate potential changes in the tracer's kinetics and uptake after multiple treatment cycles, 16 of the 27 patients included in the dosimetry sub study, were imaged at both cycle 1 and cycle 3. Among these, at cycle 3, three patients were imaged at all 4 timepoints and the other 13 were imaged at one or two timepoints only (24 h, 48 h or both 24 h and 48 h) (Table 7 in Appendix 1). For these 13 patients, the TACs obtained at cycle 1 were used for each source organ and scaled to the normalized activity value(s) measured at Cycle 3. For patients imaged at two timepoints, the TACs were preferably scaled using the average scaling factor between the two timepoints.
A subgroup of 16 out of the 27 patients underwent and additional dosimetry assessment at Cycle 3. Among these, three patients had dosimetry performed based on images taken at 4 timepoints, while the remaining patients had dosimetry performed at 1 or 2 imaging timepoints only, as described in Section 4.4.1.
The organ absorbed radiation doses were compared to the mean organ absorbed radiation doses from Cycle 1 for the same subset of patients, as shown in Table 5. The dosimetry estimations obtained at cycle 3 align closely with those from cycle 1. At this timepoint, the kidneys had the highest dose (0.49±0.19 Gy/GBq) but, for most organs, the estimated absorbed dose values were similar to or lower compared to cycle 1. […]

O=C([O-])CC[C@H](NC(=O)N[C@@H](CCCCNC(=O)CCCCCCC(=O)NCCCC[C@@H](NC(=O)[C@@H](Cc1ccccc1)NC(=O)[C@@H](Cc1ccc(O)c(I)c1)NC(=O)CC[C@H](C(=O)[O-])N1CCN(CC(=O)[O-])CCN(CC(=O)[O-])CCN(CC(=O)[O-])CC1)C(=O)[O-])C(=O)[O-])C(=O)[O-].[177Lu+3].[H+].[H+].[H+].[H+].[H+] [^177Lu-PSMA I&T, (3S,7S,26R,29R,32R,37R)-29-benzyl-32-(4-hydroxy-3-iodobenzyl)-5,13,20,28,31,34-hexaoxo-37-(4,7,10-tris(carboxymethyl)-1,4,7,10-tetraazacyclododecan-1-yl)-4,6,12,21,27,30,33-heptaazaheptatriacontane-1,3,7,26,37-pentacarboxylic acid; lutetium-177 (III)]
absorbed dose, kidneys: 0.49±0.19 Gy/GBq
